Source: US10179123B2, “2-aryl- and 2-arylalkyl-benzimidazoles as mIDH1 inhibitors” (BAYER PHARMA AKTIENGESELLSCHAFT, priority 2015, dated 2019)

Each compound was assayed against IDH1 R132H enzyme (Homo sapiens (Human), UniProt O75874, R132H) (assay: Mutant IDH1 R132H biochemical assay). Details: NADPH consumption, luminescent readout; 1.5 nM enzyme, 1 μM NADPH, 250 μM α-KG, 30 minutes, 32° C.
Chain of IDH1 R132H enzyme (O75874 whole entry R132H): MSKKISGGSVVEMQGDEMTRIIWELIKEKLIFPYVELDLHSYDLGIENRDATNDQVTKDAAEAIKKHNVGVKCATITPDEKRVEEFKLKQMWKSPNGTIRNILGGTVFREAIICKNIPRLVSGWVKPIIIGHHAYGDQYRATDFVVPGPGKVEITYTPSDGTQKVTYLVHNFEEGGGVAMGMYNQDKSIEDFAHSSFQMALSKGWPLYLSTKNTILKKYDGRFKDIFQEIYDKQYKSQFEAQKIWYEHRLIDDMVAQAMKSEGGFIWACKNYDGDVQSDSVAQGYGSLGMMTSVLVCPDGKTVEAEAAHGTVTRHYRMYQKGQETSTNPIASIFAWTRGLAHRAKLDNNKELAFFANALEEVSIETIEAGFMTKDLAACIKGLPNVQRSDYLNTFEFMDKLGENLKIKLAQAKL
Protocol: NADPH consumption was measured by luminescent readout. […] The final DMSO concentration was 2.4%. […] Luminescence was measured on a luminescent reader (10 seconds measuring time, 1 second integration period, 30% sensitivity). The decrease in luminescence is proportional to mIDH1 activity. IC50 values are determined by interpolation from plots of relative luminescence versus inhibitor concentration.
`COC(=O)c1ccc2c(c1)nc(Cc1ccc(OC(F)(F)F)cc1)n2[C@H]1C[C@@H](C)CC(C)(C)C1` (single isomer, unassigned) [Example 2-3-1, methyl 2-[4-(trifluoromethoxy)benzyl]-1-[(cis)-3,3,5-trimethylcyclohexyl]-1H-benzimidazole-5-carboxylate] was tested, and the IC50 was 1700 nM.
`C[C@H]1C[C@@H](n2c(C(C)(C)c3ccc(OC(F)(F)F)cc3)nc3cc(C(=O)O)ccc32)CC(C)(C)C1` (stereo in doubt) [Example 2-31] gave an IC50 of 3800 nM.
With `COC(=O)c1cc2nc(Cc3ccc(OC(F)(F)F)cc3)n([C@H]3C[C@@H](C)CC(C)(C)C3)c2cc1OC(C)C` (single isomer, unassigned) [Example 2-20-2, methyl 6-(propan-2-yloxy)-2-[4-(trifluoromethoxy)benzyl]-1-[(cis)-3,3,5-trimethylcyclohexyl]-1H-benzimidazole-5-carboxylate] the IC50 was 3300 nM.
For `COC(=O)c1ccc2c(c1)nc(Cc1ccc(OC(C)C)cc1)n2[C@H]1C[C@@H](C)CC(C)(C)C1` (racemic) [Example 2-6, (±) methyl 2-[4-(propan-2-yloxy)benzyl]-1-[(cis)-3,3,5-trimethylcyclohexyl]-1H-benzimidazole-5-carboxylate], the IC50 was 1500 nM.
`COC(=O)c1ccc2c(c1)nc(Cc1cccc(OC(F)(F)F)c1)n2[C@H]1C[C@@H](C)CC(C)(C)C1` (racemic) [Example 2-14, (±) methyl 2-[3-(trifluoromethoxy)benzyl]-1-[(cis)-3,3,5-trimethylcyclohexyl]-1H-benzimidazole-5-carboxylate] showed an IC50 of 10000 nM.
In the case of `CC(C)Oc1ccc(Cc2nc3cc(C#N)ccc3n2[C@H]2C[C@@H](C)CC(C)(C)C2)cc1` (racemic) [Example 2-24, (±) 2-[4-(propan-2-yloxy)benzyl]-1-[(cis)-3,3,5-trimethylcyclohexyl]-1H-benzimidazole-5-carbonitrile], the IC50 is reported as 1500 nM.
`COC(=O)c1ccc2c(c1)nc(-c1ccc(OC(F)(F)F)cc1)n2[C@H]1C[C@@H](C)CC(C)(C)C1` (single isomer, unassigned) [Example 2-1-2, methyl 2-[4-(trifluoromethoxy)phenyl]-1-[(cis)-3,3,5-trimethylcyclohexyl]-1H-benzimidazole-5-carboxylate] showed an IC50 of 5700 nM.
`COC(=O)c1cc2nc(Cc3ccc(OC(F)(F)F)cc3)n([C@H]3C[C@@H](C)CC(C)(C)C3)c2cc1OC(C)C` (single isomer, unassigned) [Example 2-20-1, methyl 6-(propan-2-yloxy)-2-[4-(trifluoromethoxy)benzyl]-1-[(cis)-3,3,5-trimethylcyclohexyl]-1H-benzimidazole-5-carboxylate] gave an IC50 of 1300 nM.
`C[C@H]1C[C@@H](n2c(Cc3ccc(OC(F)(F)F)cc3)nc3cc(C(=O)O)c(OCC(F)(F)F)cc32)CC(C)(C)C1` (stereo in doubt) [Example 2-47] gave an IC50 of 1000 nM.
`C[C@H]1C[C@@H](n2c(Cc3ccc(F)cc3)nc3cc(C(=O)O)ccc32)CC(C)(C)C1` (stereo in doubt) [Example 2-35] was tested, and the IC50 was 1300 nM.
`CC(C)c1ccc(Cc2nc3cc(C#N)ccc3n2[C@H]2C[C@@H](C)CC(C)(C)C2)cc1` (racemic) [Example 2-25, (±) 2-[4-(propan-2-yl)benzyl]-1-[(cis)-3,3,5-trimethylcyclohexyl]-1H-benzimidazole-5-carbonitrile] was tested, and the IC50 was 350 nM.
Compound `COC(=O)c1ccc2c(c1)nc(C(C)c1ccc(OC(F)(F)F)cc1)n2[C@H]1C[C@@H](C)CC(C)(C)C1` (single isomer, unassigned) [Reference compound 2-4-2, methyl 2-{1-[4-(trifluoromethoxy)phenyl]ethyl}-1-[(cis)-3,3,5-trimethylcyclohexyl]-1H-benzimidazole-5-carboxylate, reference compound] has an IC50 greater than 10000 nM.
Compound `Cc1[nH]c2ccc(F)cc2c1Cc1nc2cc(C(=O)O)ccc2n1[C@@H]1C[C@H](C)CC(C)(C)C1` (stereo in doubt) [Example 2-42] has an IC50 of 7000 nM.
Work on `C[C@H]1C[C@@H](n2c(Cc3ccccc3)nc3cc(C(=O)O)ccc32)CC(C)(C)C1` (stereo in doubt) [Example 2-38] yielded an IC50 of 2400 nM.
Work on `COC(=O)c1ccc2c(c1)nc(Cc1ccc(F)cc1)n2[C@H]1C[C@@H](C)CC(C)(C)C1` (racemic) [Example 2-9, (±) methyl 2-(4-fluorobenzyl)-1-[(cis)-3,3,5-trimethylcyclohexyl]-1H-benzimidazole-5-carboxylate] yielded an IC50 of 4200 nM.
`COC(=O)c1ccc2c(c1)nc(Cc1ccc(C(F)(F)F)cc1)n2[C@H]1C[C@@H](C)CC(C)(C)C1` (racemic) [Example 2-8, (±) methyl 2-[4-(trifluoromethyl)benzyl]-1-[(cis)-3,3,5-trimethylcyclohexyl]-1H-benzimidazole-5-carboxylate] was tested, and the IC50 was 1500 nM.
Work on `COC(=O)c1ccc2c(nc(Cc3ccc(OC(F)(F)F)cc3)n2C2CC(C)(C)CC(C)(C)C2)c1F` [Example 2-22, methyl 4-fluoro-1-(3,3,5,5-tetramethylcyclohexyl)-2-[4-(trifluoromethoxy)benzyl]-1H-benzimidazole-5-carboxylate] yielded an IC50 of 800 nM.
`C[C@H]1C[C@@H](n2c(Cc3cccc(OC(F)(F)F)c3)nc3cc(C(=O)O)ccc32)CC(C)(C)C1` (stereo in doubt) [Example 2-40] showed an IC50 of 1800 nM.
For `C[C@H]1C[C@@H](n2c(Cc3ccccc3OC(F)(F)F)nc3cc(C(=O)O)ccc32)CC(C)(C)C1` (stereo in doubt) [Example 2-39], the IC50 was 5000 nM.
In the case of `COC(=O)c1cc2nc(Cc3ccc(OC(F)(F)F)cc3)n([C@H]3C[C@@H](C)CC(C)(C)C3)c2cc1OC(C)C` (racemic) [Example 2-20, (±) methyl 6-(propan-2-yloxy)-2[4-(trifluoromethoxy)benzyl]-1-[(cis)-3,3,5-trimethylcyclohexyl]-1H-benzimidazole-5-carboxylate], the IC50 is reported as 2800 nM.
`COC(=O)c1ccc2c(c1)nc(C(C)c1ccc(OC(F)(F)F)cc1)n2[C@H]1C[C@@H](C)CC(C)(C)C1` (single isomer, unassigned) [Reference compound 2-4-3, methyl 2-{1-[4-(trifluoromethoxy)phenyl]ethyl}-1-[(cis)-3,3,5-trimethylcyclohexyl]-1H-benzimidazole-5-carboxylate, reference compound] gave an IC50 of 5000 nM.
For `C[C@@H]1C[C@H](n2c(Cc3ccc(OC(F)(F)F)cc3)nc3cc(C(=O)O)c(OCC(F)(F)F)cc32)CC(C)(C)C1` (stereo in doubt) [Example 2-47-2], the IC50 was 650 nM.
Compound `CC(C)Oc1ccc(Cc2nc3cc(C(=O)O)ccc3n2[C@@H]2C[C@H](C)CC(C)(C)C2)cc1` (stereo in doubt) [Example 2-32-1] has an IC50 of 450 nM.
For `COC(=O)c1cc2nc(Cc3ccc(OC(F)(F)F)cc3)n([C@H]3C[C@@H](C)CC(C)(C)C3)c2cc1C` (single isomer, unassigned) [Example 2-18-2, methyl 6-methyl-2[4-(trifluoromethoxy)benzyl]-1-[(cis)-3,3,5-trimethylcyclohexyl]-1H-benzimidazole-5-carboxylate], the IC50 was 1200 nM.
Compound `C[C@H]1C[C@@H](n2c(Cc3ccc(OC(F)(F)F)cc3)nc3cc(C(=O)O)c(OCC(F)(F)F)cc32)CC(C)(C)C1` (stereo in doubt) [Example 2-47-1] has an IC50 of 2000 nM.
`CC(C)Oc1cc2c(cc1C(=O)O)nc(Cc1ccc(OC(F)(F)F)cc1)n2[C@H]1C[C@@H](C)CC(C)(C)C1` (stereo in doubt) [Example 2-46-2] showed an IC50 of 500 nM.
`COC(=O)c1ccc2c(c1)nc(Cc1ccc(C(C)(C)C)cc1)n2[C@H]1C[C@@H](C)CC(C)(C)C1` (racemic) [Example 2-11, (±) methyl 2-(4-tert-butylbenzyl)-1-[(cis)-3,3,5-trimethylcyclohexyl]-1H-benzimidazole-5-carboxylate] showed an IC50 of 1400 nM.
Work on `COC(=O)c1ccc2c(c1)nc(Cc1ccc(C)cc1)n2[C@H]1C[C@@H](C)CC(C)(C)C1` (racemic) [Example 2-10, (±) methyl 2-(4-methylbenzyl)-1-[(cis)-3,3,5-trimethylcyclohexyl]-1H-benzimidazole-5-carboxylate] yielded an IC50 of 1500 nM.
`COC(=O)c1ccc2c(c1)nc(Cc1ccc(OC(F)(F)F)cc1)n2[C@H]1C[C@@H](C)CC(C)(C)C1` (racemic) [Example 2-3, (±) methyl 2-[4-(trifluoromethoxy)benzyl]-1-[(cis)-3,3,5-trimethylcyclohexyl]-1H-benzimidazole-5-carboxylate] showed an IC50 of 670 nM.
`COC(=O)c1ccc2c(c1)nc(Cc1ccccc1OC(F)(F)F)n2[C@@H]1C[C@H](C)CC(C)(C)C1` (racemic) [Example 2-13, (± methyl 2-[2-(trifluoromethoxy)benzyl]-1-[(cis)-3,3,5-trimethylcyclohexyl]-1H-benzimidazole-5-carboxylate] showed an IC50 of 10000 nM.
In the case of `C[C@H]1C[C@@H](n2c(Cc3cn(C)c4ccccc34)nc3cc(C(=O)O)ccc32)CC(C)(C)C1` (stereo in doubt) [Example 2-43], the IC50 is reported as 6600 nM.
In the case of `COC(=O)c1ccc2c(c1)nc(-c1ccc(OC(F)(F)F)cc1)n2[C@H]1C[C@@H](C)CC(C)(C)C1` (racemic) [Example 2-1, (±) methyl 2-[4-(trifluoromethoxy)phenyl]-1-[(cis)-3,3,5-trimethylcyclohexyl]-1H-benzimidazole-5-carboxylate], the IC50 is reported as 9900 nM.
For `COC(=O)c1ccc2c(c1)nc(C(C)(C)c1ccc(OC(F)(F)F)cc1)n2[C@H]1C[C@@H](C)CC(C)(C)C1` (racemic) [Reference compound 2-5, (±) methyl 2-{2-[4-(trifluoromethoxy)phenyl]propan-2-yl}-1-[(cis)-3,3,5-trimethylcyclohexyl]-1H-benzimidazole-5-carboxylate, reference compound], the IC50 was greater than 10000 nM.
With `COC(=O)c1ccc2c(c1)nc(-c1ccc(OC(F)(F)F)cc1)n2[C@H]1C[C@@H](C)CC(C)(C)C1` (single isomer, unassigned) [Example 2-1-1, methyl 2-[4-(trifluoromethoxy)phenyl]-1-[(cis)-3,3,5-trimethylcyclohexyl]-1H-benzimidazole-5-carboxylate] the IC50 was 1000 nM.
